Test results as given in EPA's ToxRefDB 2.

Key:
dog [1] = details: Subchronic oral toxicity in nonrodent, beagle, Gavage/Intubation, dose end: 91 day, group: systemic, systemic / organ weight / liver / absolute + systemic / clinical chemistry / alanine aminotransferase (alt/sgpt) / alanine aminotransferase…
rat [2] = details: Subchronic oral toxicity in rodents, sprague dawley, Gavage/Intubation, dose end: 91 day, group: systemic
mouse [3] = details: Sub-acute repeat dose toxicity, Oral, Gavage/Intubation, dose end: 14 day, group: systemic
primate [4] = details: Sub-acute repeat dose toxicity; Oral; Gavage/Intubation; dose end: 7 day; group: systemic; systemic / pathology gross / stomach / erosion + systemic / pathology gross / stomach / foci + systemic / pathology gross / stomach / lesion…
primate [5] = details: Sub-acute repeat dose toxicity, Oral, Gavage/Intubation, dose end: 14 day, group: systemic
primate [6] = details: Sub-acute repeat dose toxicity; Oral; Gavage/Intubation; dose end: 14 day; group: systemic; systemic / clinical chemistry / albumin / albumin + systemic / hematology / fibrinogen / fibrinogen + systemic / hematology / neutrophils / …
rat [7] = details: Sub-acute repeat dose toxicity, sprague dawley, Oral, Gavage/Intubation, dose end: 14 day, group: systemic
mouse [8] = details: Subchronic oral toxicity in rodents, b6c3f1, Feed, dose end: 13 week, group: systemic
rat [9] = details: Subchronic oral toxicity in rodents, fischer, Feed, dose end: 13 week, group: systemic, systemic / pathology microscopic / kidney / inflammation
rat [10] = details: Carcinogenicity; fischer; Oral; Feed; dose end: 103 week; group: systemic; systemic / in life observation / body weight / body weight
mouse [11] = details: Carcinogenicity, b6c3f1, Oral, Feed, dose end: 103 week, group: systemic
rat [12] = details: Prenatal developmental toxicity study, other, Oral, Gavage/Intubation, dose end: 15 GD
dog [13] = details: Subchronic oral toxicity in nonrodent, beagle, Feed, dose end: 14 week, group: systemic
[14] = systemic / clinical chemistry / [other] / [other] + systemic / clinical chemistry / alanine aminotransferase (alt/sgpt) / alanine …
[15] = systemic / clinical chemistry / alanine aminotransferase (alt/sgpt) / alanine aminotransferase (alt/sgpt) + systemic / clinical chemistry / …
[16] = systemic / clinical chemistry / [other] / [other] + systemic / clinical chemistry / 5' nucleotidase / 5' nucleotidase + systemic / clinical …
[17] = systemic / clinical chemistry / cytochrome p450, nos / cytochrome p450, nos + systemic / in life observation / clinical signs / abnormal …
[18] = systemic / in life observation / food consumption / food consumption + systemic / clinical chemistry / cytochrome p450, nos / cytochrome …
[19] = systemic / organ weight / liver / absolute + systemic / in life observation / clinical signs / salivation
[20] = systemic / in life observation / body weight / body weight gain + systemic / pathology microscopic / kidney / inflammation + systemic / …
[21] = systemic / in life observation / body weight / body weight
[22] = systemic / in life observation / body weight / body weight + systemic / in life observation / mortality / mortality
[23] = group: developmental, developmental / developmental malformation / bone / fused
[24] = group: developmental, developmental / developmental malformation / bone / fused + developmental / developmental malformation / bone / incomplete ossification + …
[25] = group: maternal, systemic / in life observation / body weight / body weight gain + systemic / in life observation / food consumption / food consumption
[26] = systemic / in life observation / food consumption / food efficiency + systemic / in life observation / body weight / body weight gain + …

CC(=O)NCCN1CCc2cc(NC(=O)c3ccccc3-c3ccc(C(F)(F)F)cc3)ccc2C1
LEL (dog [1]): 1 mg/kg/day | LOAEL (dog [1]): > 5 mg/kg/day | NEL (dog [1]): < 1 mg/kg/day | NOAEL (dog [1]): ≥ 5 mg/kg/day | LOAEL (rat [2]; [14]): > 50 mg/kg/day | NOAEL (rat [2]; [14]): ≥ 50 mg/kg/day | LEL (rat [2]; [15]): 1 mg/kg/day | NEL (rat [2]; [15]): < 1 mg/kg/day

CC(C)c1cccc(C(C)C)c1NC(=O)[N-]S(=O)(=O)c1cc(C(C)(C)O)co1.[Na+]
LOAEL (mouse [3]; [16]): > 300 mg/kg/day | NEL (mouse [3]; [16]): 75 mg/kg/day | NOAEL (mouse [3]; [16]): ≥ 300 mg/kg/day | LEL (mouse [3]; systemic / in life observation / body weight / body weight gain + systemic / organ weight / liver / absolute): 150 mg/kg/day | LEL (primate [4]): 300 mg/kg/day | LOAEL (primate [4]): > 300 mg/kg/day | NEL (primate [4]): < 300 mg/kg/day | NOAEL (primate [4]): ≥ 300 mg/kg/day | LEL (primate [5]; [17]): 300 mg/kg/day | NEL (primate [5]; [17]): 100 mg/kg/day | LOAEL (primate [5]; [18]): > 500 mg/kg/day | NOAEL (primate [5]; [18]): ≥ 500 mg/kg/day | LEL (primate [6]): 100 mg/kg/day | LOAEL (primate [6]): > 100 mg/kg/day | NEL (primate [6]): < 100 mg/kg/day | NOAEL (primate [6]): ≥ 100 mg/kg/day | NEL (rat [7]; systemic / organ weight / liver / absolute): 20 mg/kg/day | LEL (rat [7]; [19]): 100 mg/kg/day | LOAEL (rat [7]; [19]): > 300 mg/kg/day | NOAEL (rat [7]; [19]): ≥ 300 mg/kg/day

CC(C)[C@@H]1CC[C@@H](C)C[C@H]1O (racemic) [dl-Menthol]
LOAEL (mouse [8]; [20]): > 2250 mg/kg/day | NEL (mouse [8]; [20]): 562 mg/kg/day | NOAEL (mouse [8]; [20]): ≥ 2250 mg/kg/day | LEL (mouse [8]; systemic / pathology microscopic / kidney / inflammation + systemic / pathology microscopic / lymph node / hyperplasia): 1120 mg/kg/day | LEL (rat [9]): 750 mg/kg/day | LOAEL (rat [9]): > 750 mg/kg/day | NEL (rat [9]): 375 mg/kg/day | NOAEL (rat [9]): ≥ 750 mg/kg/day | LEL (rat [10]): 375 mg/kg/day | LOAEL (rat [10]): > 18700 mg/kg/day | NEL (rat [10]): < 375 mg/kg/day | NOAEL (rat [10]): ≥ 18700 mg/kg/day | LEL (mouse [11]; [21]): 300 mg/kg/day | NEL (mouse [11]; [21]): < 300 mg/kg/day | LOAEL (mouse [11]; [22]): > 600 mg/kg/day | NOAEL (mouse [11]; [22]): ≥ 600 mg/kg/day

CCNc1nc(N)nc(Cl)n1 [Deisopropylatrazine]
LEL (rat [12]; [23]): 25 mg/kg/day | LOAEL (rat [12]; [23]): 25 mg/kg/day | NEL (rat [12]; [24]): 5 mg/kg/day | NOAEL (rat [12]; [24]): 5 mg/kg/day | LEL (rat [12]; [25]): 25 mg/kg/day | LOAEL (rat [12]; [25]): 25 mg/kg/day | NEL (rat [12]; [25]): 5 mg/kg/day | NOAEL (rat [12]; [25]): 5 mg/kg/day | LOAEL (dog [13]; systemic / in life observation / food consumption / food efficiency): 18 mg/kg/day | LEL (dog [13]; [26]): 18 mg/kg/day | NEL (dog [13]; [26]): 3.8 mg/kg/day | NOAEL (dog [13]; [26]): 3.8 mg/kg/day
